Results reported in patent publication US20230398130A1, “METHODS AND COMPOSITIONS FOR DIFFERENTIATING STEM CELLS” (Massachusetts Institute of Technology, priority 2020, published 2023).

Assays:
ISC-enriched organoids [1] = assay: Primary screen, 384-well 2.5-D organoid differentiation (ENR+CD, 6 days, Target Selective Inhibitor Library, vs whole-plate median): ATP (CellTiter-Glo 3D, CTG); details: primary screen; for Dose.FC.CTG: FC vs plate median; for Z.CTG: standard z score; for SSMD.CTG: strictly standardized mean difference
ISC-enriched organoids [2] = assay: Primary screen, 384-well 2.5-D organoid differentiation (ENR+CD, 6 days): basal lysozyme secretion (LYZ.NS); type: cell-based, murine; details: primary screen; for Dose.FC.LYZ.NS: FC vs plate median; for Z.LYZ.NS: standard z score; for SSMD.LYZ.NS: strictly standardized mean difference
From the text: (§1) High-throughput screening.

ISC-enriched organoids [3] = assay: Primary screen, 384-well 2.5-D organoid differentiation (ENR+CD, 6 days): carbachol-induced lysozyme secretion (LYZ.S); type: cell-based, murine; details: primary screen; for Dose.FC.LYZ.S: FC vs plate median; for Z.LYZ.S: standard z score; for SSMD.LYZ.S: strictly standardized mean difference
From the text: as §1

[4] = 1st of the 4 dose lines of the treatment (dose not given)
[5] = 2nd of the 4 dose lines of the treatment (dose not given)
[6] = 3rd of the 4 dose lines of the treatment (dose not given)
[7] = 4th of the 4 dose lines of the treatment (dose not given)

Compound	Dose.FC.CTG (ISC-enriched organoids [1]; Dose 0.08 uM) [log 2 fold change]	Z.CTG (ISC-enriched organoids [1]; Dose 0.08 uM)	Dose.FC.CTG (ISC-enriched organoids [1]; Dose 0.40 uM) [log 2 fold change]	Z.CTG (ISC-enriched organoids [1]; Dose 0.40 uM)	Dose.FC.CTG (ISC-enriched organoids [1]; Dose 2.00 uM) [log 2 fold change]	Z.CTG (ISC-enriched organoids [1]; Dose 2.00 uM)	Dose.FC.CTG (ISC-enriched organoids [1]; Dose 10.00 uM) [log 2 fold change]	Z.CTG (ISC-enriched organoids [1]; Dose 10.00 uM)	SSMD.CTG (ISC-enriched organoids [1]; [4])	SSMD.CTG (ISC-enriched organoids [1]; [5])	SSMD.CTG (ISC-enriched organoids [1]; [6])	SSMD.CTG (ISC-enriched organoids [1]; [7])	Dose.FC.LYZ.NS (ISC-enriched organoids [2]; Dose 0.08 uM) [log 2 fold change]	Z.LYZ.NS (ISC-enriched organoids [2]; Dose 0.08 uM)	Dose.FC.LYZ.NS (ISC-enriched organoids [2]; Dose 0.40 uM) [log 2 fold change]	Z.LYZ.NS (ISC-enriched organoids [2]; Dose 0.40 uM)	Dose.FC.LYZ.NS (ISC-enriched organoids [2]; Dose 2.00 uM) [log 2 fold change]	Z.LYZ.NS (ISC-enriched organoids [2]; Dose 2.00 uM)	Dose.FC.LYZ.NS (ISC-enriched organoids [2]; Dose 10.00 uM) [log 2 fold change]	Z.LYZ.NS (ISC-enriched organoids [2]; Dose 10.00 uM)	further results
C[C@H](NC(=O)[C@@H](O)c1cc(F)cc(F)c1)C(=O)N[C@@H]1C(=O)N(C)c2ccccc2-c2ccccc21 [LY411575]	0.035	0.083	−0.172	−0.411	−0.172	−0.412	−0.259	−0.618	0.086	−0.312	−0.389	−0.550	0.040	0.347	−0.050	−0.434	−0.069	−0.598	−0.109	−0.949	SSMD.LYZ.NS (ISC-enriched organoids [2]; [4]): 0.217; SSMD.LYZ.NS (ISC-enriched organoids [2]; [5]): −0.432; SSMD.LYZ.NS (ISC-enriched organoids [2]; [6]): −0.593; SSMD.LYZ.NS (ISC-enriched organoids [2]; [7]): −0.931; Dose.FC.LYZ.S (ISC-enriched organoids [3]; Dose 0.08 uM): 0.024 log 2 fold change; Dose.FC.LYZ.S (ISC-enriched organoids [3]; Dose 0.40 uM): 0.041 log 2 fold change; Dose.FC.LYZ.S (ISC-enriched organoids [3]; Dose 2.00 uM): −0.091 log 2 fold change; Dose.FC.LYZ.S (ISC-enriched organoids [3]; Dose 10.00 uM): −0.157 log 2 fold change; Z.LYZ.S (ISC-enriched organoids [3]; [4]): 0.155; Z.LYZ.S (ISC-enriched organoids [3]; [5]): 0.266; Z.LYZ.S (ISC-enriched organoids [3]; [6]): −0.590; Z.LYZ.S (ISC-enriched organoids [3]; [7]): −1.015; SSMD.LYZ.S (ISC-enriched organoids [3]; [4]): 0.094; SSMD.LYZ.S (ISC-enriched organoids [3]; [5]): 0.171; SSMD.LYZ.S (ISC-enriched organoids [3]; [6]): −0.596; SSMD.LYZ.S (ISC-enriched organoids [3]; [7]): −0.917
Cc1cccc(-c2nn3c(c2-c2ccnc4ccc(C(N)=O)cc24)CCC3)n1 [LY2157299]	0.091	0.218	0.137	0.328	0.017	0.041	0.095	0.226	0.343	0.369	0.048	0.314	0.227	1.973	0.140	1.221	0.092	0.799	0.162	1.408	SSMD.LYZ.NS (ISC-enriched organoids [2]; [4]): 0.656; SSMD.LYZ.NS (ISC-enriched organoids [2]; [5]): 0.737; SSMD.LYZ.NS (ISC-enriched organoids [2]; [6]): 0.827; SSMD.LYZ.NS (ISC-enriched organoids [2]; [7]): 1.243; Dose.FC.LYZ.S (ISC-enriched organoids [3]; Dose 0.08 uM): 0.187 log 2 fold change; Dose.FC.LYZ.S (ISC-enriched organoids [3]; Dose 0.40 uM): 0.199 log 2 fold change; Dose.FC.LYZ.S (ISC-enriched organoids [3]; Dose 2.00 uM): 0.113 log 2 fold change; Dose.FC.LYZ.S (ISC-enriched organoids [3]; Dose 10.00 uM): 0.223 log 2 fold change; Z.LYZ.S (ISC-enriched organoids [3]; [4]): 1.209; Z.LYZ.S (ISC-enriched organoids [3]; [5]): 1.287; Z.LYZ.S (ISC-enriched organoids [3]; [6]): 0.731; Z.LYZ.S (ISC-enriched organoids [3]; [7]): 1.441; SSMD.LYZ.S (ISC-enriched organoids [3]; [4]): 1.145; SSMD.LYZ.S (ISC-enriched organoids [3]; [5]): 1.157; SSMD.LYZ.S (ISC-enriched organoids [3]; [6]): 0.808; SSMD.LYZ.S (ISC-enriched organoids [3]; [7]): 1.219
